Data: patent US20240158446A1, “CYCLIC COMPOUND HAVING SELECTIVE INHIBITORY ACTION ON KRAS OVER HRAS AND NRAS” (CHUGAI SEIYAKU KABUSHIKI KAISHA, priority 2021, published 2024)
Read-outs that look alike come from different tables or passages of the source.

How the values were obtained:
[1] = molecular target: GDP-bound KRAS wild-type protein (Homo sapiens, UniProt P01116); assay: Binding to KRAS by surface plasmon resonance (SPR), Single Cycle Kinetics
[2] = molecular target: GDP-bound HRAS wild-type protein (Homo sapiens, UniProt P01112); assay: Binding to HRAS by surface plasmon resonance (SPR), Single Cycle Kinetics; details: for HRAS/KRAS (ratio of KD value for HRAS to KD value for KRAS): GDP-bound HRAS wild-type protein vs GDP-bound KRAS wild-type protein
[3] = molecular target: GDP-bound NRAS wild-type protein (Homo sapiens, UniProt P01111); assay: Binding to NRAS by surface plasmon resonance (SPR), Single Cycle Kinetics; details: for NRAS/KRAS (ratio of KD value for NRAS to KD value for KRAS): GDP-bound NRAS wild-type protein vs GDP-bound KRAS wild-type protein
[4] = test system: human lung cancer strain NCI-H441;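 also: cell proliferation inhibition after four days measured by CellTiter-Glo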
[5] = SPR, Single Cycle Kinetics, 1:1 binding model, GDP-bound KRAS wild-type protein, read-out: KRAS KD
[6] = SPR, Single Cycle Kinetics, GDP-bound KRAS wild-type protein, read-out: KRAS KD

Chain of GDP-bound KRAS wild-type protein (P01116 whole entry): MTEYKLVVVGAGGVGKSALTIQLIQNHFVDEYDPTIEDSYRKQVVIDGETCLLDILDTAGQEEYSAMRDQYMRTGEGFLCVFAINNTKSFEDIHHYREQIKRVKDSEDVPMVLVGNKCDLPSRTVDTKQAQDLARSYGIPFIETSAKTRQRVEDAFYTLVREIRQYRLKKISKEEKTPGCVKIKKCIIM
Chain of GDP-bound HRAS wild-type protein (P01112 whole entry): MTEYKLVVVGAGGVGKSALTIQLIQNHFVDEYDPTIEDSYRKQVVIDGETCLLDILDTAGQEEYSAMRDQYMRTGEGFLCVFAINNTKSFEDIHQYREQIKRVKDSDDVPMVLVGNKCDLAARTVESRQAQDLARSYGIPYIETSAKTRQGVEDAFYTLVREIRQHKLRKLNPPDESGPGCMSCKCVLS
Chain of GDP-bound NRAS wild-type protein (P01111 whole entry): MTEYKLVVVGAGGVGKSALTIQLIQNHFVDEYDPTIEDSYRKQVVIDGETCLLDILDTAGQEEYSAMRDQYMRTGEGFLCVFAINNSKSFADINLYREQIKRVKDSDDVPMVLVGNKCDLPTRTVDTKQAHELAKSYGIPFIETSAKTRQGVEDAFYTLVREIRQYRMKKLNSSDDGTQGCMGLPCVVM

| SMILES | Kd [1, 5] [nM] | HRAS/KRAS (ratio of KD value for HRAS to KD value for KRAS) ([2]; SPR, KD ratio class) | NRAS/KRAS (ratio of KD value for NRAS to KD value for KRAS) ([3]; SPR, KD ratio class) | IC50 [4] [nM] | Kd [1, 6] [nM] | HRAS/KRAS (ratio of KD value for HRAS to KD value for KRAS) ([2]; SPR) | NRAS/KRAS (ratio of KD value for NRAS to KD value for KRAS) ([3]; SPR) | other results |
| --- | --- | --- | --- | --- | --- | --- | --- | --- |
| CCO[C@@H]1C[C@H]2C(=O)NC3(CCC3)C(=O)N(C)[C@@H](C3CCCC3)C(=O)N(C)[C@H](C(=O)N(C)C)CC(=O)N(C)[C@@H](CC(C)(C)C)C(=O)N[C@@H]([C@@H](C)CC)C(=O)N(C)CC(=O)N(C)[C@H]3C/C=C\CCN(C3=O)[C@@H](CC3CCC(F)(F)CC3)C(=O)N(C)CC(=O)N[C@@H](CCc3cc(F)c(C(F)(F)F)c(F)c3)C(=O)N2C1 [PP1460] | 0.23 | A (a compound having 10 or more and less than 20 is denoted as A) | A (a compound having 10 or more and less than 20 is denoted as A) | 32.9 | – | – | – | – |
| CCO[C@@H]1C[C@H]2C(=O)NC3(CCC3)C(=O)N(C)[C@@H](C3CCCC3)C(=O)N(C)[C@H](C(=O)N3CCOCC3)CC(=O)N(C)[C@@H](CC)C(=O)N[C@@H]([C@@H](C)CC)C(=O)N3CC[C@H]3C(=O)N(C)[C@H]3CC[C@@H](C)CN(C3=O)[C@@H](Cc3ccc(C(F)(F)F)cc3)C(=O)N(C)CC(=O)N[C@@H](CCc3cc(F)c(C(F)(F)F)c(F)c3)C(=O)N2C1 [PP1369] | 0.26 | B (a compound having 3 or more and less than 10 is denoted as B) | B (a compound having 3 or more and less than 10 is denoted as B) | 13.4 | – | – | – | – |
| CCC[C@H]1C(=O)N[C@@H]([C@@H](C)CC)C(=O)N(C)CC(=O)N(C)[C@H]2C/C=C\CCN(C2=O)[C@@H](Cc2ccc(C)cc2)C(=O)N(C)CC(=O)N[C@@H](CCc2ccc(C(F)(F)F)c(OC)c2)C(=O)N2C[C@@H](C)C[C@H]2C(=O)N(C)C2(CCC2)C(=O)N(C)[C@@H](C2CCCC2)C(=O)N(C)[C@H](C(=O)N(C)C)CC(=O)N1C [PP2364] | – | – | – | 4.6 | 0.016 | B (a compound having 3 or more and less than 10 is denoted as B) | A (a compound having 10 or more and less than 20 is denoted as A) | – |
| CCCOC[C@H]1C(=O)N[C@@H]([C@@H](C)CC)C(=O)N(C)CC(=O)N(C)[C@H]2C/C=C\CCN(C2=O)[C@@H](Cc2ccc(C)cc2)C(=O)N(C)CC(=O)N[C@@H](CCc2ccc(C(F)(F)F)c(OC)c2)C(=O)N2C[C@@H](C)C[C@H]2C(=O)NC2(CC(C)(C)C2)C(=O)N(C)[C@@H](C2CCCC2)C(=O)N(C)[C@H](C(=O)N(C)C)CC(=O)N1C [PP2447] | – | – | – | 8.6 | 0.11 | B (a compound having 3 or more and less than 10 is denoted as B) | A (a compound having 10 or more and less than 20 is denoted as A) | – |
| CCO[C@@H]1C[C@H]2C(=O)NC3(CCC3)C(=O)N(C)[C@@H](C3CCCC3)C(=O)N(CC)[C@H](C(=O)N3CCOCC3)CC(=O)N(C)[C@@H](CC)C(=O)N[C@@H]([C@@H](C)CC)C(=O)N(C)CC(=O)N(C)[C@H]3C/C=C\CCN(C3=O)[C@@H](Cc3ccc(C(F)(F)F)cc3)C(=O)N(C)CC(=O)N[C@@H](CCc3cc(F)c(C(F)(F)F)c(F)c3)C(=O)N2C1 [PP0979] | – | – | – | 281 | 1.7 | A (a compound having 10 or more and less than 20 is denoted as A) | AA (a compound having 20 or more is denoted as AA) | – |
| CCO[C@@H]1C[C@H]2C(=O)NC3(CCC3)C(=O)N(C)[C@@H](C3CCCC3)C(=O)N(C)[C@H](C(=O)N(C)C)CC(=O)N(C)[C@@H](CC(C)C)C(=O)N[C@@H]([C@@H](C)CC)C(=O)N(C)CC(=O)N(C)[C@H]3C/C=C\CCN(C3=O)[C@@H](CC3CCCCC3)C(=O)N(C)CC(=O)N[C@@H](CCc3cc(F)c(C(F)(F)F)c(F)c3)C(=O)N2C1 [PP1467, (2S,8S,12R,14S,20S,23S,27S,30S,36S,38Z)-2-(cyclohexylmethyl)-20-cyclopentyl-8-[2-[3,5-difluoro-4-(trifluoromethyl)phenyl]ethyl]-12-ethoxy-27-isobutyl-N,N,4,19,22,26,32,35-octamethyl-30-[(1S)-1-methylpropyl]-3,6,9,15,18,21,25,28,31,34,42-undecaoxo-spiro[1,4,7,10,16,19,22,26,29,32,35-undecazatricyclo[34.5.1.0^10,14]dotetracont-38-ene-17,1′-cyclobutane]-23-carboxamide] | 0.12 | A (a compound having 10 or more and less than 20 is denoted as A) | A (a compound having 10 or more and less than 20 is denoted as A) | 11.2 | – | – | – | – |
| CCC[C@H]1C(=O)N[C@@H](CC(C)C)C(=O)N(CCOC)CC(=O)N(C)[C@H]2C/C=C\CCN(C2=O)[C@@H](Cc2ccc(C)cc2)C(=O)N(C)CC(=O)N[C@@H](CCc2cc(F)c(C(F)(F)F)c(F)c2)C(=O)N2C[C@H](OCC)C[C@H]2C(=O)NC2(CC(C)(C)C2)C(=O)N(C)[C@@H](C2CCCC2)C(=O)N(C)[C@H](C(=O)N(C)C)CC(=O)N1C [PP2520] | – | – | – | 210 | 3.3 | A (a compound having 10 or more and less than 20 is denoted as A) | A (a compound having 10 or more and less than 20 is denoted as A) | – |
| CCC[C@H]1C(=O)N[C@@H]([C@@H](C)CC)C(=O)N2CCC[C@H]2C(=O)N(C)[C@H]2C/C=C\CCN(C2=O)[C@@H](Cc2ccc(C(F)F)cc2)C(=O)N(C)CC(=O)N[C@@H](CCc2ccc(Cl)c(Cl)c2)C(=O)N2C[C@H](OC(C)C)C[C@H]2C(=O)NC2(CC(C)(C)C2)C(=O)N(C)[C@@H](C(CC)CC)C(=O)N(C)[C@H](C(=O)N(C)C)CC(=O)N1C [PP2640] | – | – | – | 84.1 | – | – | – | Kd ([1]; SPR Single Cycle Kinetics, GDP-bound KRAS wild-type protein, 1:1 binding model, read-out: KRAS KD): 1.4 nM; HRAS/KRAS (ratio of KD value with respect to GDP-bound HRAS wild-type protein to KD value with respect to KRAS) ([2]; SPR KD ratio HRAS/KRAS, class symbols): A (a compound having 10 or more and less than 20 is denoted as A); NRAS/KRAS (ratio of KD value with respect to GDP-bound NRAS wild-type protein to KD value with respect to KRAS) ([3]; SPR KD ratio NRAS/KRAS, class symbols): AA (a compound having 20 or more is denoted as AA) |
| CCO[C@@H]1C[C@H]2C(=O)NC3(CCC3)C(=O)N(C)[C@@H](C3CCCC3)C(=O)N(C)[C@H](C(=O)N(C)C)CC(=O)N(C)[C@@H](CC)C(=O)N[C@@H]([C@@H](C)CC)C(=O)N(C)CC(=O)N(C)[C@H]3C/C=C\CCN(C3=O)[C@@H](Cc3ccc(C(F)(F)F)cc3)C(=O)N(C)CC(=O)N[C@@H](CCc3ccc(C(F)(F)F)c(C)c3)C(=O)N2C1 [PP1265] | 0.17 | B (a compound having 3 or more and less than 10 is denoted as B) | A (a compound having 10 or more and less than 20 is denoted as A) | 14.1 | – | – | – | – |
| CCO[C@@H]1C[C@H]2C(=O)NC3(CCC3)C(=O)N(C)[C@@H](C3CCCC3)C(=O)N(C)[C@H](C(=O)N(C)C)CC(=O)N(C)[C@@H](CC3CC3)C(=O)N[C@@H]([C@@H](C)CC)C(=O)N(C)CC(=O)N(C)[C@H]3C/C=C\CCN(C3=O)[C@@H](Cc3ccc(F)cc3)C(=O)N(C)CC(=O)N[C@@H](CCc3ccc4sccc4c3)C(=O)N2C1 [PP1426] | 1 | B (a compound having 3 or more and less than 10 is denoted as B) | A (a compound having 10 or more and less than 20 is denoted as A) | 475 | – | – | – | – |
| CCC[C@H]1C(=O)N[C@@H]([C@@H](C)CC)C(=O)N(C)CC(=O)N(C)[C@H]2C/C=C\CCN(C2=O)[C@@H](Cc2ccc(C)cc2)C(=O)N(C)CC(=O)N[C@@H](CCc2ccc(C(F)(F)F)c(OC)c2)C(=O)N2C[C@H](OCC)C[C@H]2C(=O)N(C)C2(CCC2)C(=O)N(C)[C@@H](C2CCCC2)C(=O)N(C)[C@H](C(=O)N2CCCCC2)CC(=O)N1C [PP3104, (2S,8S,12R,14S,20S,23S,27S,30S,36S,38Z)-20-cyclopentyl-12-ethoxy-8-[2-[3-methoxy-4-(trifluoromethyl)phenyl]ethyl]-4,16,19,22,26,32,35-heptamethyl-30-[(1S)-1-methylpropyl]-23-(piperidine-1-carbonyl)-27-propyl-2-(p-tolylmethyl)spiro[1,4,7,10,16,19,22,26,29,32,35-undecazatricyclo[34.5.1.0^10,14]dotetracont-38-ene-17,1′-cyclobutane]-3,6,9,15,18,21,25,28,31,34,42-undecone] | – | – | – | – | 0.097 | A (a compound having 10 or more and less than 20 is denoted as A) | A (a compound having 10 or more and less than 20 is denoted as A) | Kd ([1]; SPR, Single Cycle Kinetics, 1:1 binding model, read-out: KD value with respect to GDP-bound KRAS wild-type protein): 0.097 nM; ratio of the KD value with respect to GDP-bound HRAS wild-type protein to the KD value with respect to KRAS ([2]; SPR, KD(HRAS)/KD(KRAS)): A (a compound having 10 or more and less than 20 is denoted as A); ratio of the KD value with respect to GDP-bound NRAS wild-type protein to the KD value with respect to KRAS ([3]; SPR, KD(NRAS)/KD(KRAS)): A (a compound having 10 or more and less than 20 is denoted as A); IC50 ([4]; read-out: NCI-H441 cell proliferation inhibitory activity, 50% proliferation inhibitory concentration (IC50 value), NCI-H441, four days, CellTiter-Glo): 3.8 nM |
